Measurements reported in US6583180B2, “Glucocorticoid receptor modulators” (Abbott Laboratories, priority 2001, dated 2003).

Biological target: T1, Human glucocorticoid receptors (Homo sapiens, UniProt P04150)
T1 construct: made in house; host or cells: Sf9 insect cells, recombinant baculovirus (BAC-TO-BAC)
T1 sequence (P04150 1-777): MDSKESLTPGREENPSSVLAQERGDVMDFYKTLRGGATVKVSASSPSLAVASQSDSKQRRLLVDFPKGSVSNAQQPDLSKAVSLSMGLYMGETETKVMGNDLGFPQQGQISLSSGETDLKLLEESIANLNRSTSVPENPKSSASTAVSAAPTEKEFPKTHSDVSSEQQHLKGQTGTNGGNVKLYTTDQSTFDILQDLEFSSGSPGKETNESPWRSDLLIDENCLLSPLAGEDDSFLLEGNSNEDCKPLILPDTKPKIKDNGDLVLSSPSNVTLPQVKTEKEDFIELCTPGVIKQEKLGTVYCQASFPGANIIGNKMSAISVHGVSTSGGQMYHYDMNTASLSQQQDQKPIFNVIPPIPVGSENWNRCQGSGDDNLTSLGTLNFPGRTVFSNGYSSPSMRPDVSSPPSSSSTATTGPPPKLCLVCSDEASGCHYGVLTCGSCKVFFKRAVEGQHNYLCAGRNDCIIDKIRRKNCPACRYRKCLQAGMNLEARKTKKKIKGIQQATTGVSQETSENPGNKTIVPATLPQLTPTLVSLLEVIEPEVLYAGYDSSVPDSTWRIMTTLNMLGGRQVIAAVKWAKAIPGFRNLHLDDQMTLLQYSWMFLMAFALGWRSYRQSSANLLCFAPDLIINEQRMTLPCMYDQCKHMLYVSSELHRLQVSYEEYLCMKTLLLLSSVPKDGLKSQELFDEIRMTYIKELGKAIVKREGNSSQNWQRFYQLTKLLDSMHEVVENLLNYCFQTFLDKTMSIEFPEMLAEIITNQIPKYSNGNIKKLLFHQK
Experiment: Radioligand filter binding assay, displacement of 3[H]-dexamethasone from hGR
Settings: read-out: GR Binding (% Inhibition at 1.7 μM)
Summary of the method: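 Recombinant hGR extract from baculovirus-infected Sf9 cells (final ~1 nM receptor) incubated with ³H-dexamethasone and test compound dilutions in duplicate, EDTA/phosphate pH 8 buffer with MTG, overnight (15-20 h) at +4° C. Bound label collected on PEI-treated GF/B filters and scintillation-counted; IC50 from four-parameter fit of corrected cpm.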

Structure (SMILES)	inhibition at 1.7 µM [%]
Cc1c(NS(C)(=O)=O)cccc1N(Cc1ccccc1)Cc1ccc(Oc2cccc(OC3CCOCC3)c2)cc1 [Example 287, N-[3-(benzyl{4-[3-(tetrahydro-2H-pyran-4-yloxy)phenoxy]benzyl}amino)-2-methylphenyl]methanesulfonamide]	89.2
Cc1c(NS(C)(=O)=O)cccc1N(Cc1ccccc1)Cc1ccc(Oc2cccc(OC3CCOC3)c2)cc1 (stereo not drawn) [Example 288, N-[3-(benzyl{4-[3-(tetrahydrofuran-3-yloxy)phenoxy]benzyl}amino)-2-methylphenyl]methanesulfonamide]	89.8
Cc1c(NS(C)(=O)=O)cccc1N(Cc1ccccc1)Cc1ccc(Oc2cccc(OC[C@@H]3CCCN3C)c2)cc1 [Example 289, N-(3-{benzyl[4-(3-{[(2S)-1-methylpyrrolidin-2-yl]methoxy}phenoxy)benzyl]amino}-2-methylphenyl)methanesulfonamide]	87.8
Cc1c(NS(C)(=O)=O)cccc1N(Cc1ccccc1)Cc1ccc(Oc2cccc(OCc3cccnc3)c2)cc1 [Example 290, N-[3-(benzyl{4-[3-(pyridin-3-ylmethoxy)phenoxy]benzyl}amino)-2-methylphenyl]methanesulfonamide]	89.1
Cc1c(NS(C)(=O)=O)cccc1N(Cc1ccccc1)Cc1ccc(Oc2cccc(OC[C@@H]3CCCN3)c2)cc1 [Example 291, N-{3-[benzyl(4-{3-[(2S)-pyrrolidin-2-ylmethoxy]phenoxy}benzyl)amino]-2-methylphenyl}methanesulfonamide]	87.7
Cc1c(NS(C)(=O)=O)cccc1N(Cc1ccccc1)Cc1ccc(Oc2cccc(OC3CCN(C)C3)c2)cc1 (stereo not drawn) [Example 292, N-{3-[benzyl(4-{3-[(1-methylpyrrolidin-3-yl)oxy]phenoxy}benzyl)amino]-2-methylphenyl}methanesulfonamide]	89.4
Cc1c(NS(C)(=O)=O)cccc1N(Cc1ccc(Oc2ccc(Cl)c(OCC(=O)O)c2)cc1)Cc1ccccc1F [Example 306, (2-chloro-5-(4-(((2-fluorobenzyl)(2-methyl-3-((methylsulfonyl)amino)phenyl)amino)methyl)phenoxy)phenoxy)acetic acid]	97
Cc1c(NS(C)(=O)=O)cccc1N(Cc1ccc(Oc2ccc(Cl)c(OCC(=O)O)c2)cc1)Cc1ccccc1Br [Example 307, (5-(4-(((2-bromobenzyl)(2-methyl-3-((methylsulfonyl)amino)phenyl)amino)methyl)phenoxy)-2-chlorophenoxy)acetic acid]	97
Cc1c(NS(C)(=O)=O)cccc1N(Cc1ccc(Br)cc1)Cc1ccc(Oc2ccc(Cl)c(OCC(=O)O)c2)cc1 [Example 308, (5-(4-(((4-bromobenzyl)(2-methyl-3-((methylsulfonyl)amino)phenyl)amino)methyl)phenoxy)-2-chlorophenoxy)acetic acid]	95.7
Cc1c(NS(C)(=O)=O)cccc1N(Cc1ccc(Oc2ccc(Cl)c(OCC(=O)O)c2)cc1)Cc1ccc(Cl)cc1Cl [Example 309, (2-chloro-5-(4-(((2,4-dichlorobenzyl)(2-methyl-3-((methylsulfonyl)amino)phenyl)amino)methyl)phenoxy)phenoxy)acetic acid]	97.4
Cc1c(NS(C)(=O)=O)cccc1N(Cc1ccc(Oc2ccc(Cl)c(OCC(=O)O)c2)cc1)Cc1ccc(Cl)cc1F [Example 310, (2-chloro-5-(4-(((4-chloro-2-fluorobenzyl)(2-methyl-3-((methylsulfonyl)amino)phenyl)amino)methyl)phenoxy)phenoxy)acetic acid]	97.5
Cc1c(NS(C)(=O)=O)cccc1N(Cc1ccc(Oc2ccc(Cl)c(OCC(=O)O)c2)cc1)Cc1ccc(F)cc1Cl [Example 311, (2-chloro-5-(4-(((2-chloro-4-fluorobenzyl)(2-methyl-3-((methylsulfonyl)amino)phenyl)amino)methyl)phenoxy)phenoxy)acetic acid]	97.4
Cc1c(NS(C)(=O)=O)cccc1N(Cc1ccc(Oc2ccc(Cl)c(OCC(=O)O)c2)cc1)Cc1ccc(Cl)cc1Br [Example 312, (5-(4-(((2-bromo-4-chlorobenzyl)(2-methyl-3-((methylsulfonyl)amino)phenyl)amino)methyl)phenoxy)-2-chlorophenoxy)acetic acid]	97.3
Cc1c(NS(C)(=O)=O)cccc1N(Cc1ccc(Oc2ccc(Cl)c(OCC(=O)O)c2)cc1)Cc1ccc(F)c(F)c1 [Example 313, (2-chloro-5-(4-(((3,4-difluorobenzyl)(2-methyl-3-((methylsulfonyl)amino)phenyl)amino)methyl)phenoxy)phenoxy)acetic acid]	96.3
Cc1c(NS(C)(=O)=O)cccc1N(Cc1ccc(Oc2ccc(Cl)c(OCC(=O)O)c2)cc1)Cc1ccc(C(=O)c2ccccc2)cc1 [Example 314, (5-(4-(((4-benzoylbenzyl)(2-methyl-3-((methylsulfonyl)amino)phenyl)amino)methyl)phenoxy)-2-chlorophenoxy)acetic acid]	96.6
Cc1c(NS(C)(=O)=O)cccc1N(Cc1ccc(Oc2ccc(Cl)c(OCC(=O)O)c2)cc1)Cc1ccc(Br)cc1F [Example 315, (5-(4-(((4-bromo-2-fluorobenzyl)(2-methyl-3-((methylsulfonyl)amino)phenyl)amino)methyl)phenoxy)-2-chlorophenoxy)acetic acid]	97
Cc1c(NS(C)(=O)=O)cccc1N(Cc1ccc(Oc2ccc(Cl)c(OCC(=O)NCC(=O)O)c2)cc1)Cc1ccc(F)cc1F [Example 316, N-((2-chloro-5-(4-(((2,4-difluorobenzyl)(2-methyl-3-((methylsulfonyl)amino)phenyl)amino)methyl)phenoxy)phenoxy)acetyl)glycine]	96.3
Cc1c(NS(C)(=O)=O)cccc1N(Cc1ccc(Oc2ccc(Cl)c(OCC(=O)NCCC(=O)O)c2)cc1)Cc1ccc(F)cc1F [Example 317, N-((2-chloro-5-(4-(((2,4-difluorobenzyl)(2-methyl-3-((methylsulfonyl)amino)phenyl)amino)methyl)phenoxy)phenoxy)acetyl)-beta-alanine]	96.5
Cc1c(NS(C)(=O)=O)cccc1N(Cc1ccc(Oc2ccc(Cl)c(OCC(=O)NCCCC(=O)O)c2)cc1)Cc1ccc(F)cc1F [Example 318, 4-(((2-chloro-5-(4-(((2,4-difluorobenzyl)(2-methyl-3-((methylsulfonyl)amino)phenyl)amino)methyl)phenoxy)phenoxy)acetyl)amino)butanoic acid]	95.1
Cc1c(NS(C)(=O)=O)cccc1N(Cc1ccccc1)Cc1ccc(Oc2ccc(Cl)c(OCCCC(=O)NCCCC(=O)O)c2)cc1 [Example 319, 4-((4-(5-(4-((benzyl(2-methyl-3-((methylsulfonyl)amino)phenyl)amino)methyl)phenoxy)-2-chlorophenoxy)butanoyl)amino)butanoic acid]	96.4
Cc1c(NS(C)(=O)=O)cccc1N(Cc1ccc(Oc2ccc(Cl)c(OCCCC(=O)NCCCC(=O)O)c2)cc1)Cc1ccc(F)cc1F [Example 320, 4-((4-(2-chloro-5-(4-(((2,4-difluorobenzyl)(2-methyl-3-((methylsulfonyl)amino)phenyl)amino)methyl)phenoxy)phenoxy)butanoyl)amino)butanoic acid]	96.8
